In BindingDB's records for doi:10.1016/j.bmcl.2006.10.063 (Astrazeneca R&D Boston, 2007):

These molecules were tested against T1, Amine oxidase [flavin-containing] A (Homo sapiens, UniProt P21397) (assay: Inhibition human liver MAOA activity).
T1 sequence (P21397 whole entry): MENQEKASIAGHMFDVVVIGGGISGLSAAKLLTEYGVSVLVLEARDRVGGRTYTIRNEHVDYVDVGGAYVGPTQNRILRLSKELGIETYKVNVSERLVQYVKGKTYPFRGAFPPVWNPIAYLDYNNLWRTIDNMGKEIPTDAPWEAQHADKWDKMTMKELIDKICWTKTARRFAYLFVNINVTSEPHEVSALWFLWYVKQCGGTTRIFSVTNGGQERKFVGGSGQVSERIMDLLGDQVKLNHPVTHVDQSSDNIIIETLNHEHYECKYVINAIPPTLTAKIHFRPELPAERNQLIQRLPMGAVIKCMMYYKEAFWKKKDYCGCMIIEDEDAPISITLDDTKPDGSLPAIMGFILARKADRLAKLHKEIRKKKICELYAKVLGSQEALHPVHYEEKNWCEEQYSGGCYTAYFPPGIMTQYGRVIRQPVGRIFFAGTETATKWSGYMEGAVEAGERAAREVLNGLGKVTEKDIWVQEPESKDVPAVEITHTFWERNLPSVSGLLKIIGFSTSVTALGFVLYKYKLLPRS

Ki [µM]	SMILES
0.95	CC(=O)NC[C@H]1CN(c2ccc(-c3cc(C)no3)c(F)c2)C(=O)O1 [N-(((S)-3-(3-fluoro-4-(3-methylisoxazol-5-yl)phenyl)-2-oxooxazolidin-5-yl)methyl)acetamide]
20	CC(=O)NC[C@H]1CN(c2ccc(N3CCOCC3)c(F)c2)C(=O)O1 [Zyvox]

Second part, the molecule before the results:

SMILES	Ki [µM]
Cc1cn(C[C@H]2CN(c3ccc(-c4cc(C)no4)c(F)c3)C(=O)O2)nn1 [(5R)-3-(3-fluoro-4-(3-methylisoxazol-5-yl)phenyl)-5-((4-methyl-1H-1,2,3-triazol-1-yl)methyl)oxazolidin-2-one]	22.6
Cc1cc(-c2ccc(N3C[C@H](Cn4ccnn4)OC3=O)cc2F)on1 [(5R)-5-((1H-1,2,3-triazol-1-yl)methyl)-3-(3-fluoro-4-(3-methylisoxazol-5-yl)phenyl)oxazolidin-2-one]	2.9
Cc1cc(-c2ccc(N3C[C@H](CNc4ccon4)OC3=O)cc2F)on1 [(5S)-3-(3-fluoro-4-(3-methylisoxazol-5-yl)phenyl)-5-((isoxazol-3-ylamino)methyl)oxazolidin-2-one]	0.42
